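48-hour exposure; five concentrations; linearly interpolated endpoints. GI50: concentration for 50% inhibition of growth.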 Calls of active or inactive are those of the source. Cut-off read from the data, not from the text of the source: active = GI50 up to about 1.1 µM and inactive = higher.
Columns and labels:
Assay in all cases: NCI tumour cell line growth inhibition, 48 h
[1] = tested on: PC-3
[2] = tested on: SN12C
[3] = tested on: NCI-H226
[4] = tested on: Malme-3M
[5] = tested on: SF-295
[6] = tested on: OVCAR-4
[7] = tested on: UO-31
[8] = tested on: SK-MEL-5
[9] = tested on: U-251
[10] = tested on: UACC-257
[11] = tested on: COLO 205
[12] = tested on: MCF7
[13] = tested on: OVCAR-5
[14] = tested on: IGROV-1
[15] = tested on: 786-0
[16] = tested on: A549
[17] = tested on: HL-60
[18] = tested on: HCC 2998
[19] = tested on: SK-OV-3
[20] = tested on: HT-29

Row | Structure (SMILES) | GI50 [1] | GI50 [2] | GI50 [3] | GI50 [4] | GI50 [5] | GI50 [6] | GI50 [7] | GI50 [8] | GI50 [9] | GI50 [10] | GI50 [11] | GI50 [12] | GI50 [13] | GI50 [14] | GI50 [15] | GI50 [16] | GI50 [17] | GI50 [18] | GI50 [19] | GI50 [20]
1 | CCOC(=O)c1[nH]c(Br)c(-c2ccc(OC)c(OC)c2)c1Br | 0.0356 µM (active) | 0.117 µM (active) | 0.0381 µM (active) | 1.71 µM (inactive) | 0.00975 µM (active) | 4.82 µM (inactive) | 0.0676 µM (active) | 0.0412 µM (active) | 0.0311 µM (active) | 0.00386 µM (active) | 0.175 µM (active) | 0.245 µM (active) | 5.27 µM (inactive) | 0.0552 µM (active) | 0.0334 µM (active) | 0.287 µM (active) | 0.0679 µM (active) | 0.199 µM (active) | – | –
2 | O=C1C=CC2(C=C1)O[C@H](COCc1ccccc1)[C@@H](COCc1ccccc1)O2 | 2.13 µM (inactive) | 1.65 µM (inactive) | 1.82 µM (inactive) | 2.54 µM (inactive) | 16 µM (inactive) | 2.23 µM (inactive) | 1.57 µM (inactive) | 1.67 µM (inactive) | 1.92 µM (inactive) | 1.62 µM (inactive) | 1.72 µM (inactive) | 0.313 µM (active) | 1.55 µM (inactive) | 1.61 µM (inactive) | 0.627 µM (active) | 15.3 µM (inactive) | 2.59 µM (inactive) | – | 15.7 µM (inactive) | 2.34 µM (inactive)
3 | CC(C)(C)OC(=O)NC(CCCCNC(=O)OCc1ccccc1)C(=O)NC(CCCCNC(=O)OCc1ccccc1)C(=O)ON1C(=O)CCC1=O (stereo not given) | > 100 µM (inactive) | > 100 µM (inactive) | > 100 µM (inactive) | > 100 µM (inactive) | – | – | > 100 µM (inactive) | > 100 µM (inactive) | > 100 µM (inactive) | > 100 µM (inactive) | > 100 µM (inactive) | > 100 µM (inactive) | > 100 µM (inactive) | > 100 µM (inactive) | > 100 µM (inactive) | > 100 µM (inactive) | > 100 µM (inactive) | > 100 µM (inactive) | – | > 100 µM (inactive)
4 | OCCNc1ncnc2c1ncn2C1OC(CO)C(O)C1O (stereo not given) | 47.4 µM (inactive) | 80.5 µM (inactive) | – | > 100 µM (inactive) | > 100 µM (inactive) | > 100 µM (inactive) | 57.4 µM (inactive) | > 100 µM (inactive) | > 100 µM (inactive) | > 100 µM (inactive) | > 100 µM (inactive) | 39.4 µM (inactive) | > 100 µM (inactive) | > 100 µM (inactive) | > 100 µM (inactive) | > 100 µM (inactive) | 33.1 µM (inactive) | 64.9 µM (inactive) | > 100 µM (inactive) | > 100 µM (inactive)
5 | CCOCCOCCOCc1nc(C#N)c(N)o1 | > 100 µM (inactive) | > 100 µM (inactive) | > 100 µM (inactive) | – | > 100 µM (inactive) | > 100 µM (inactive) | > 100 µM (inactive) | > 100 µM (inactive) | > 100 µM (inactive) | > 100 µM (inactive) | > 100 µM (inactive) | > 100 µM (inactive) | > 100 µM (inactive) | > 100 µM (inactive) | > 100 µM (inactive) | > 100 µM (inactive) | > 100 µM (inactive) | > 100 µM (inactive) | > 100 µM (inactive) | > 100 µM (inactive)
6 | C/C(=N\C1CCCCC1)c1ccccc1O | > 100 µM (inactive) | > 100 µM (inactive) | > 100 µM (inactive) | > 100 µM (inactive) | > 100 µM (inactive) | > 100 µM (inactive) | > 100 µM (inactive) | > 100 µM (inactive) | > 100 µM (inactive) | > 100 µM (inactive) | > 100 µM (inactive) | > 100 µM (inactive) | > 100 µM (inactive) | > 100 µM (inactive) | > 100 µM (inactive) | > 100 µM (inactive) | 56.1 µM (inactive) | – | > 100 µM (inactive) | > 100 µM (inactive)
7 | CSc1n[nH]c2[nH]nc(C)c12 | > 100 µM (inactive) | > 100 µM (inactive) | > 100 µM (inactive) | > 100 µM (inactive) | > 100 µM (inactive) | > 100 µM (inactive) | > 100 µM (inactive) | > 100 µM (inactive) | > 100 µM (inactive) | > 100 µM (inactive) | > 100 µM (inactive) | > 100 µM (inactive) | > 100 µM (inactive) | > 100 µM (inactive) | > 100 µM (inactive) | > 100 µM (inactive) | – | > 100 µM (inactive) | > 100 µM (inactive) | > 100 µM (inactive)
8 | CN1CCN(Cn2nc(-c3ccccc3)n(/N=C/c3ccc(-c4ccc(Cl)cc4Cl)o3)c2=S)CC1 | 8.43 µM (inactive) | – | 20 µM (inactive) | – | 11.4 µM (inactive) | 16.3 µM (inactive) | 14.8 µM (inactive) | 7.71 µM (inactive) | 5.25 µM (inactive) | 18 µM (inactive) | – | 12.4 µM (inactive) | 15.2 µM (inactive) | 8.97 µM (inactive) | 13.1 µM (inactive) | – | 4.58 µM (inactive) | 12.8 µM (inactive) | 13.5 µM (inactive) | 12.3 µM (inactive)
9 | O=C1C2CCCCC2C(=O)N1n1c(Cc2ccc(Cl)cc2)n[nH]c1=O (stereo not given) | > 100 µM (inactive) | > 100 µM (inactive) | > 100 µM (inactive) | > 100 µM (inactive) | > 100 µM (inactive) | > 100 µM (inactive) | > 100 µM (inactive) | > 100 µM (inactive) | > 100 µM (inactive) | > 100 µM (inactive) | > 100 µM (inactive) | > 100 µM (inactive) | > 100 µM (inactive) | > 100 µM (inactive) | > 100 µM (inactive) | > 100 µM (inactive) | – | > 100 µM (inactive) | > 100 µM (inactive) | > 100 µM (inactive)
10 | COc1cc(CC2C(=O)OCC2Cc2ccc(OC)c(OC)c2)ccc1O (stereo not given) | 99.1 µM (inactive) | > 100 µM (inactive) | > 100 µM (inactive) | > 100 µM (inactive) | 8.85 µM (inactive) | > 100 µM (inactive) | > 100 µM (inactive) | 4.42 µM (inactive) | > 100 µM (inactive) | > 50.6 µM (inactive) | > 100 µM (inactive) | > 100 µM (inactive) | > 100 µM (inactive) | > 75.3 µM (inactive) | > 100 µM (inactive) | > 71.8 µM (inactive) | > 100 µM (inactive) | – | > 100 µM (inactive) | > 100 µM (inactive)
11 | CNC(=O)Oc1ccc(C(=S)Nc2ccc(Br)cc2)cc1 | 23.8 µM (inactive) | – | – | 31.3 µM (inactive) | – | 18.5 µM (inactive) | 17 µM (inactive) | 17.8 µM (inactive) | 23.2 µM (inactive) | 28.4 µM (inactive) | 18.2 µM (inactive) | 18.3 µM (inactive) | 25.4 µM (inactive) | 0.783 µM (active) | 21.8 µM (inactive) | 21.9 µM (inactive) | 2.1 µM (inactive) | 17.8 µM (inactive) | 44 µM (inactive) | 19.9 µM (inactive)
12 | Cc1cccc(NS(=O)(=O)c2ccc3c(c2)OCCOCCOCCOCCO3)c1 | > 100 µM (inactive) | > 100 µM (inactive) | > 100 µM (inactive) | > 100 µM (inactive) | > 100 µM (inactive) | – | > 100 µM (inactive) | > 100 µM (inactive) | – | > 100 µM (inactive) | > 100 µM (inactive) | > 100 µM (inactive) | – | > 100 µM (inactive) | > 100 µM (inactive) | > 100 µM (inactive) | > 100 µM (inactive) | > 100 µM (inactive) | > 100 µM (inactive) | > 100 µM (inactive)
13 | COc1cc2c(cc1OCCCCCN1C(=O)c3cccc4cccc(c34)C1=O)N=C[C@@H]1CCCN1C2=O | 0.282 µM (active) | 0.336 µM (active) | 0.177 µM (active) | 0.163 µM (active) | 0.386 µM (active) | 0.248 µM (active) | 0.153 µM (active) | 0.257 µM (active) | 0.249 µM (active) | 0.323 µM (active) | 0.28 µM (active) | 0.181 µM (active) | 0.406 µM (active) | 0.0552 µM (active) | 0.249 µM (active) | 0.535 µM (active) | – | 0.3 µM (active) | 0.514 µM (active) | 0.286 µM (active)
14 | N#Cc1c(C#N)c(-c2ccccc2)n(-c2ccccc2)c1N | > 100 µM (inactive) | > 100 µM (inactive) | 72.4 µM (inactive) | > 100 µM (inactive) | 15.3 µM (inactive) | 56.2 µM (inactive) | 12.8 µM (inactive) | 18.9 µM (inactive) | 33.4 µM (inactive) | > 100 µM (inactive) | > 100 µM (inactive) | > 100 µM (inactive) | > 100 µM (inactive) | 88.5 µM (inactive) | 82.6 µM (inactive) | > 100 µM (inactive) | > 100 µM (inactive) | – | 83.6 µM (inactive) | > 100 µM (inactive)
15 | COCc1nc2c(OC)c(-c3nc4ccc(N5CCN(C)CC5)cc4[nH]3)cc(OC)c2[nH]1 | 42.9 µM (inactive) | 43.9 µM (inactive) | > 100 µM (inactive) | 16.9 µM (inactive) | 21.6 µM (inactive) | 59.2 µM (inactive) | 31.2 µM (inactive) | 22.2 µM (inactive) | 42 µM (inactive) | 17.7 µM (inactive) | 25.6 µM (inactive) | 35.6 µM (inactive) | > 100 µM (inactive) | 97.9 µM (inactive) | 40.1 µM (inactive) | 48.9 µM (inactive) | 33.6 µM (inactive) | – | 52.1 µM (inactive) | 31.5 µM (inactive)
